Test results published in PMC9781916, “Antipsychotic- and Anxiolytic-like Properties of a Multimodal Compound JJGW08 in Rodents” (International Journal of Molecular Sciences, 2022).

What was measured:
human D2 receptor = target: T1, human D2 receptor (Homo sapiens, UniProt P14416); assay: Functional assay (aequorin, calcium mobilization) in CHO-K1 cells, D2 receptor; format: cell-based; parameters: Emax: dose or concentration left out as unconfirmed; conditions: CHO-K1, read-out: Antagonist Mode Emax%
T1 construct: host or cells: CHO-K1
T1 sequence (P14416 whole entry): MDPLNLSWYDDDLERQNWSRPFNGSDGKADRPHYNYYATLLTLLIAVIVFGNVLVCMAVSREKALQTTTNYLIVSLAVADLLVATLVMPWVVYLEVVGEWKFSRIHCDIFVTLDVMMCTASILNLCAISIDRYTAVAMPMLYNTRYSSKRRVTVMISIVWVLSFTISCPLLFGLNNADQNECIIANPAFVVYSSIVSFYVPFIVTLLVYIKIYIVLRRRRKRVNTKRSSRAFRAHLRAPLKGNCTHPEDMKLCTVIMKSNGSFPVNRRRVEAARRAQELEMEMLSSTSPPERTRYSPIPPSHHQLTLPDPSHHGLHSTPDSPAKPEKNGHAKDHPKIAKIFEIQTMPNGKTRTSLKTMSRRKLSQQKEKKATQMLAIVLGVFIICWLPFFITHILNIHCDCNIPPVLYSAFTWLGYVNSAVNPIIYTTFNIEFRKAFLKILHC
Procedure: (§3) Tested and reference compounds were dissolved in dimethyl sulfoxide (DMSO) at a concentration of 10 mM. Serial dilutions were prepared in a 96-well microplate in assay buffer, and 8 to 10 concentrations were tested. […] The assay was executed according to the previously described protocol [45]. After thawing, cells were transferred to assay buffer (DMEM/HAM’s F12 with 0.1% protease-free BSA) and centrifuged. The cell pellet was resuspended in assay buffer, and coelenterazine h was added at final concentrations of 5 µM. The cell suspension was incubated at 16 °C (or 21 °C), protected from light with constant agitation for 16 h (or 4 h), and then diluted with assay buffer to the concentration of 100,000 cells/mL (or 250,000 cells/mL). After 1 h of incubation, 50 µL of the cell’s suspension was dispensed using automatic injectors built into the radiometric and luminescence plate counter MicroBeta2 LumiJET (PerkinElmer, Waltham, NA, USA) into white opaque 96-well microplates preloaded with test compounds. Immediate light emission generated following calcium mobilization was recorded for 30 s. In antagonist mode, after 25–30 min of incubation, the reference agonist was added to the above assay mix, and light emission was re-recorded. […] IC50 and EC50 values were calculated.

[1] = target: T2, human serotonin 5-HT1A receptor (Homo sapiens, UniProt P08908); assay: Functional assay (aequorin, calcium mobilization) in CHO-K1 cells, 5-HT1A receptor; format: cell-based; conditions: CHO-K1, agonist mode
T2 construct: host or cells: CHO-K1
T2 sequence (P08908 1-422): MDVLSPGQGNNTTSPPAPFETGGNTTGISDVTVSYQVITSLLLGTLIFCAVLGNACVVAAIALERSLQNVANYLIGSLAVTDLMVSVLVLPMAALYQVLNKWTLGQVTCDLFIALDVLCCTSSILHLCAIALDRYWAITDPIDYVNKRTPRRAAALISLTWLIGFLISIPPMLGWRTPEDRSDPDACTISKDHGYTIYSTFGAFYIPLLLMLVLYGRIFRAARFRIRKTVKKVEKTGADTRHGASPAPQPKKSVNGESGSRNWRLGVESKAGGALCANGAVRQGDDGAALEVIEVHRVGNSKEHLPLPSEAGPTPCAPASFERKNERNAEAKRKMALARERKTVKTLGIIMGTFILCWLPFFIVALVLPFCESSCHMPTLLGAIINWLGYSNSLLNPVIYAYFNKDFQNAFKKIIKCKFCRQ
Procedure: as §3

[2] = parameters: method as in earlier work; conditions: ref 43 (Bubeníková et al.); cited from earlier work
mice [3] = assay: Amphetamine-induced hyperlocomotion test in mice; format: in vivo; conditions: amphetamine 2.5 mg/kg sc
Procedure: (§1) Locomotor activity was recorded in actometers separately for each mouse. After 30 min of adaptation, the number of crossings of photo beams was measured during 60 min. […] MK-801 (0.2 mg/kg, ip) was administered 15 min before the experiment, while amphetamine (2.5 mg/kg) was administered subcutaneously (sc) 30 min before the experiment. […] Values are expressed as means ± SD, n = 8–10 mice per group. Statistical analysis: one-way ANOVA (Newman–Keuls post hoc), * p < 0.05, ** p < 0.01, *** p < 0.001.
(§2) The test was performed according to the method described by Carlsson et al.. The mobility of the animals was measured in actometers, i.e., in plastic Opto M3 cages (22 × 12 × 13 cm) connected to a computer with MultiDevice Software v.1.30 (Columbus Instruments, Columbus, OH, USA). The experimental cages were equipped with infrared sources on one side and sensors receiving the emitted rays on the other side of the cage. The crossing of each beam of infrared rays was classified as motor activity. The animals were placed individually in experimental cages immediately after administration of the tested compound, 30 min before the start of the test, to adapt to the new conditions and exclude the occurrence of hyperactivity caused by the change of the environment. Spontaneous locomotor activity was measured every 5 min for 60 min. Mice received two injections: of the tested compound or reference substance (30 min before the test, ip) and of amphetamine (2.5 mg/kg, 30 min before the test, sc) or MK-801 (0.2 mg/kg, 15 min before the test, ip). Control groups received an injection of saline and amphetamine or MK-801, or two injections of saline, respectively. Olanzapine was used as a reference compound.

mice [4] = assay: MK-801-induced hyperlocomotion test in mice; format: in vivo; conditions: MK-801 0.2 mg/kg ip
Procedure: as §1, §2

mice [5] = assay: Marble burying test in mice; format: in vivo
Procedure: Figure 3 The effect of JJGW08 and aripiprazole on the number of buried marbles by mice. Mice were placed individually in cages with a 5 cm bedding layer, where 20 glass balls were placed. The number of buried marbles after 30 min of the test was counted. JJGW08 was administered intraperitoneally (ip) 30 min before the test. The control group received 0.9% NaCl solution (ip) or 1% Tween (ip) for aripiprazole. Values are expressed as means ± SD in the case of one-way ANOVA (aripiprazole) or median with interquartile range in the case of Kruskal–Wallis test (JJGW08), n = 8–10 mice per group. Statistical analysis: one-way ANOVA (Newman–Keuls post hoc), and Kruskal–Wallis test (Dunn post hoc), * p < 0.05, ** p < 0.01, *** p < 0.001.
The test was conducted according to the method described by Broekkamp et al. with minor modifications. Mice were placed individually in plastic cages, identical to their home cages, that contained a layer of bedding and 20 glass balls (1.6 cm in diameter) arranged in a pattern 4 × 5. After 30 min of the experiment, the mice were removed from the cages, and the number of balls buried to at least 2/3 of their size was counted.

rats = assay: Open field test after MK-801 administration in rats (MK-801-induced hyperlocomotion); format: in vivo; conditions: MK-801 0.3 mg/kg ip
Procedure: Figure 4 The effect of JJGW08 and clozapine on MK-801-induced hyperlocomotion in rats. After the habituation period (30 min, 24 h before the test), locomotor activity was measured individually for each animal in the special apparatus. The walked distance (cm) was monitored at 10-min intervals for 30 min, using a computerized system that tracked the animals’ movement and behavior. JJGW08 and clozapine were administered intraperitoneally (ip) 30 or 60 min before the test, respectively, while MK-801 (0.3 mg/kg) was administered ip 15 min before the start of the experiment. The control group received 0.9% NaCl solution (ip) (or 1% Tween (ip) for clozapine) and MK-801 (0.3 mg/kg, ip). Values are expressed as mean ± SD, n = 7–8 rats per group. Statistical analysis: one-way ANOVA (Newman–Keuls post hoc) * p < 0.05, ** p < 0.01, *** p < 0.001.
The experiment was evaluated according to the method described earlier. It was performed in a soundproof chamber with a 30-min habituation period 24 h before the procedure. The open field apparatus consisted of four black, octagonal, stainless steel arenas (diameter: 80 cm) with 30 cm high walls. Each arena was divided into a peripheral and central sector. The peripheral sector was defined as the region within 20 cm from the walls. The approximate light intensity was 15 lx in the central point of the arena and 4 lx close to its walls.
Individual rats were placed in the central part of the open field and allowed to explore the whole arena for 30 min under dim light (approximately 10 lx) and continuous white noise (65 dB). Forward locomotion (cm/30 min) was registered in 10-min intervals for 30 min and analyzed with the aid of a computerized video tracking system (Videomot, TSE, Bad Homburg, Germany). The arenas were cleaned between tests with 20% (v/v) alcohol and allowed to dry.
The tested compound was administered ip 30 min before the experiment at the dose range of 0.3–30.0 mg/kg, and MK-801 (0.3 mg/kg,) was administered ip 15 min before the procedure. […]

[6] = target: T3, human serotonin 5-HT2A receptor (Homo sapiens, UniProt P28223); format: cell-based; conditions: 5-HT2A
T3 construct: host or cells: CHO-K1
T3 sequence (P28223 whole entry): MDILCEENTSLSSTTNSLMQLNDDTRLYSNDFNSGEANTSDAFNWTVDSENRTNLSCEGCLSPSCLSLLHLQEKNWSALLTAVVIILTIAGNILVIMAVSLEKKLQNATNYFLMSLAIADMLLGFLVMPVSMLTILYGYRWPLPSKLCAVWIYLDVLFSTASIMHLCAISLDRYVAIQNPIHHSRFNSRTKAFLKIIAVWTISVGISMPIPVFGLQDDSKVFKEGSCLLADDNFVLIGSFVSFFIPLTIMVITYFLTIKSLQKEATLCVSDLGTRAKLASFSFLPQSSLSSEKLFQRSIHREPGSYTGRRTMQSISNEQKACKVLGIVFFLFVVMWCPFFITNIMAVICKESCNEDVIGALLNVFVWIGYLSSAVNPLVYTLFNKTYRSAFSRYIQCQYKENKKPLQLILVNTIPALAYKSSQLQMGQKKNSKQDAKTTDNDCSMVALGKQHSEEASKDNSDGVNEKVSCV
Procedure: as §3

Compound: CN1CCc2cccc3c2[C@H]1Cc1ccc(O)c(O)c1-3 [Apomorphine, reference compound]
- Emax (human D2 receptor): 0%

Compound: COc1ccccc1N1CCN(CCCCN2C(=O)c3ccccc3C2=O)CC1 [NAN-190, reference compound]
- Emax [1]: 6%

Compound: Cc1cc2c(s1)Nc1ccccc1N=C2N1CCN(C)CC1 [Olanzapine]
- effect on MK-801-induced deficits in the prepulse inhibition test (in words) [2]: restored
- reduction of amphetamine-induced hyperlocomotion (mice [3]; 0.03 mg/kg ip): 54%
- reduction of amphetamine-induced hyperlocomotion (mice [3]; 0.3 mg/kg ip): 75%
- reduction of MK-801-induced hyperlocomotion (mice [4]; 0.03 mg/kg ip): 63%
- reduction of MK-801-induced hyperlocomotion (mice [4]; 0.3 mg/kg ip): 82%

Compound: O=C1CCc2ccc(OCCCCN3CCN(c4cccc(Cl)c4Cl)CC3)cc2N1 [aripiprazole]
- reduction of the number of buried marbles (mice [5]; 1.25 mg/kg ip): 61%
- reduction of the number of buried marbles (mice [5]; 2.5 mg/kg ip): 69%
- reduction of the number of buried marbles (mice [5]; 5.0 mg/kg ip): 93%

Compound: CN1CCN(C2=Nc3cc(Cl)ccc3Nc3ccccc32)CC1 [clozapine]
- reduction of MK-801-induced hyperlocomotion in the open field (rats; 10 mg/kg ip): 53%
- reduction of MK-801-induced hyperlocomotion in the open field (rats; 30 mg/kg ip): 98%
- effect on MK-801-induced deficits in the prepulse inhibition test (in words) [2]: restored

Compound: Cc1nc2n(c(=O)c1CCN1CCC(c3noc4cc(F)ccc34)CC1)CCCC2 [risperidone]
- effect on MK-801-induced deficits in the prepulse inhibition test (in words) [2]: ineffective

Compound: CC(N)Cc1c[nH]c2ccc(O)cc12 (stereo not drawn) [α-methylserotonin, reference compound]
- Agonist Mode Emax% ([6]; agonist mode): 100%
- Agonist Mode pEC50 ± Range ([6]; agonist mode): 8.5 ± 0.3
- Antagonist Mode Emax% ([6]; antagonist mode, 30 nM α-methylserotonin as reference agonist): 2%
